For three compounds, EC50, Kd and pKDapp results are on record in PMC11876601 (Molecular Systems Biology, 2025).

In assay [1] the test system is BTK. Set-up: method as in Klaeger et al. (2017). As to conditions: lysate 4 cell line mix (Colo205, K-562, MV-4-11, and SK-N-BE(2)), Kinobeads y, ref Klaeger et al. (2017); cited from earlier work.
In the next assay the test system is GAK. Set-up: method as in Klaeger et al. (2017). As to conditions: lysate 4 cell line mix (Colo205, K-562, MV-4-11, and SK-N-BE(2)), Kinobeads y, ref Klaeger et al. (2017); cited from earlier work.
A further assay has as its system MAP3K6. Also on record: method as in Klaeger et al. (2017). The conditions noted are these: lysate 4 cell line mix (Colo205, K-562, MV-4-11, and SK-N-BE(2)), Kinobeads y, ref Klaeger et al. (2017); cited from earlier work.
In a further assay the test system is MAPK8. Also on record: method as in Klaeger et al. (2017). As to conditions: lysate 4 cell line mix (Colo205, K-562, MV-4-11, and SK-N-BE(2)), Kinobeads y, ref Klaeger et al. (2017); cited from earlier work.
A further assay has as its system TGFBR2. Also on record: method as in Klaeger et al. (2017). The conditions noted are these: lysate 4 cell line mix (Colo205, K-562, MV-4-11, and SK-N-BE(2)), Kinobeads y, ref Klaeger et al. (2017); cited from earlier work.
A further assay concerns AP2A1. Set-up: method as in Klaeger et al. (2017). As to conditions: AP2A1, 4 cell line mix lysate, Kinobeads y, ref Klaeger et al. (2017); cited from earlier work.
A further assay relates to MAP4K3. Also on record: method as in Klaeger et al. (2017). The conditions noted are these: lysate 4 cell line mix (Colo205, K-562, MV-4-11, and SK-N-BE(2)), Kinobeads y, ref Klaeger et al. (2017); cited from earlier work.
A further assay concerns MAP3K5. Also on record: method as in Klaeger et al. (2017). As to conditions: lysate 4 cell line mix (Colo205, K-562, MV-4-11, and SK-N-BE(2)), Kinobeads y, ref Klaeger et al. (2017); cited from earlier work.
For another assay, the system named is RPS6KA3. Also on record: method as in Klaeger et al. (2017). The conditions noted are these: lysate 4 cell line mix (Colo205, K-562, MV-4-11, and SK-N-BE(2)), Kinobeads y, ref Klaeger et al. (2017); cited from earlier work.
Another assay has as its target EIF3J. As to conditions: 5 cell line mix lysate, Kinobeads ε, ref Reinecke et al. (2023), cited from earlier work.
A further assay has as its system PHKG2. As to conditions: PHKG2, 5 cell line mix lysate, Kinobeads ε, ref Reinecke et al. (2023), cited from earlier work.
In another assay the test system is PRKAG2. Set-up: method as in Reinecke et al. (2023). The conditions noted are these: PRKAG2, 5 cell line mix lysate, Kinobeads ε, ref Reinecke et al. (2023), cited from earlier work.
Assay [2] addresses BTK. Also on record: method as in Reinecke et al. (2023). As to conditions: 5 cell line mix lysate, Kinobeads ε, ref Reinecke et al. (2023), cited from earlier work.
For another assay, the system named is PTK6. Also on record: method as in Reinecke et al. (2023). The conditions noted are these: PTK6, 5 cell line mix lysate, Kinobeads ε, ref Reinecke et al. (2023), cited from earlier work.
The subject of a further assay is MAP3K11. As to conditions: MAP3K11, 5 cell line mix lysate, Kinobeads ε, ref Reinecke et al. (2023), cited from earlier work.
Another assay deals with TTK. Set-up: method as in Reinecke et al. (2023). The conditions noted are these: 5 cell line mix lysate, Kinobeads ε, ref Reinecke et al. (2023), cited from earlier work.
The test system of a further assay is PRKAA1. Also on record: method as in Reinecke et al. (2023). As to conditions: PRKAA1, 5 cell line mix lysate, Kinobeads ε, ref Reinecke et al. (2023), cited from earlier work.
A further assay relates to PTK2. Also on record: method as in Reinecke et al. (2023). As to conditions: PTK2, 5 cell line mix lysate, Kinobeads ε, ref Reinecke et al. (2023), cited from earlier work.
A further assay deals with CAMKK2. Set-up: method as in Reinecke et al. (2023). As to conditions: CAMKK2, 5 cell line mix lysate, Kinobeads ε, ref Reinecke et al. (2023), cited from earlier work.
Another assay addresses PRKCD. Also on record: method as in Reinecke et al. (2023). The conditions noted are these: 5 cell line mix lysate, Kinobeads ε, ref Reinecke et al. (2023), cited from earlier work.
A further assay relates to PKN3. Also on record: method as in Reinecke et al. (2023). As to conditions: PKN3, 5 cell line mix lysate, Kinobeads ε, ref Reinecke et al. (2023), cited from earlier work.
In another assay the test system is TAOK1. Set-up: method as in Reinecke et al. (2023). As to conditions: TAOK1, 5 cell line mix lysate, Kinobeads ε, ref Reinecke et al. (2023), cited from earlier work.
The next assay deals with HuP-T4. The experiment in a line: cells. Set-up: ATPlite luminescence viability of PDAC cell lines, 11-dose single-agent curves, 4-parameter fit. The conditions noted are these: Homo sapiens, HuP-T4, 72 h, read-out: EC50 [nM]. In a few lines:
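Drug-combination screening used cells plated at 1000 to 5000 per well one day before treatment. Final DMSO was 0.2%. Each plate held untreated negative-control wells and 5 µM staurosporine positive-control wells.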

SMILES strings stand for the structures. Where two headings read alike, the source gives them in different places.

The term EC50 denotes the midpoint of the concentration-response curve. Turning to `C[C@]12O[C@H](C[C@]1(O)CO)n1c3ccccc3c3c4c(c5c6ccccc6n2c5c31)CNC4=O` [Lestaurtinib], the EC50 was […] in the assay with BTK [1]; […] with GAK; 458 nM in the assay with MAP3K6; 1210 nM in the assay on MAPK8; […] in the assay with TGFBR2; 83.7 nM in the assay on AP2A1. In addition, the values for the EC50 in the assay on MAP4K3, in the assay with MAP3K5 and in the assay with RPS6KA3 were […], 788 nM and 2790 nM, respectively.
Take `COc1cc(N2CCC(N3CCN(C)CC3)CC2)ccc1Nc1ncc(Cl)c(Nc2ccccc2P(C)(C)=O)n1` [Brigatinib]: the Kd is 434 nM on EIF3J (read-out: KDapp); 193 nM at PHKG2 (read-out: KDapp); 329 nM on PRKAG2 (read-out: KDapp); 1480 nM on BTK [2] (read-out: KDapp); 41.5 nM at PTK6 (read-out: KDapp); 2230 nM at MAP3K11 (read-out: KDapp). The Kd on TTK (read-out: KDapp) was 629 nM; at PRKAA1 (read-out: KDapp) it was 709 nM; at PTK2 (read-out: KDapp), 5.15 nM; at CAMKK2 (read-out: KDapp), 40.4 nM; on PRKCD (read-out: KDapp), 24500 nM; on PKN3 (read-out: KDapp) it was 38500 nM. Further, the Kd at TAOK1 (read-out: KDapp) is 563 nM. For the same compound, the concentration for a half-maximal effect (EC50) in the assay on EIF3J is 434 nM; with PHKG2, 199 nM; with PRKAG2, 510 nM; in the assay with BTK [2], 3780 nM; with PTK6, 85.9 nM; in the assay with MAP3K11, 3200 nM. Besides, the EC50 was 629 nM in the assay with TTK; 1110 nM with PRKAA1; 12.6 nM with PTK2; 60.9 nM with CAMKK2; 25800 nM in the assay with PRKCD; 38500 nM in the assay on PKN3. For the same compound, the 50% effective concentration (EC50) with TAOK1 is 847 nM. In addition, the pKDapp at EIF3J is listed as 6.36; on PHKG2, 6.71; at PRKAG2, 6.48; at BTK [2], 5.83; on PTK6, 7.38; on MAP3K11, 5.65. Also, the pKDapp at TTK is recorded as 6.20; at PRKAA1 it was 6.15; on PTK2, 8.29; on CAMKK2, 7.39; at PRKCD, 4.61; at PKN3, 4.41. Besides, the pKDapp at TAOK1 is listed as 6.25.
With `C[C@@H]1COCCN1c1cc(-c2ccnn2C)c2ccnc(-c3ccn[nH]3)c2n1` [Elimusertib], the EC50 in the assay on HuP-T4 was 359 nM.
